Like-named read-outs stand apart in the source and are kept apart here.
Legend:
ChoX = target: ChoX; design: method as in Oswald et al. ([2008]); settings: ref Oswald et al. ([2008]); read-out: Affinity (K D); cited from earlier work
OpuAC = target: OpuAC; design: method as in Wolters et al. ([2010]); settings: ref Wolters et al. ([2010]), read-out: Affinity (K D), cited from earlier work
TmoX = target: TmoX; design: method as in Li et al. ([2015]); settings: ref Li et al. ([2015]); read-out: Affinity (K D); cited from earlier work
ProX [1] = target: ProX; design: method as in Schiefner, Breed, et al. ([2004]); settings: ref Schiefner, Breed, et al. ([2004]); read-out: Affinity (K D); cited from earlier work
ProX [2] = target: ProX; design: method as in Schiefner, Holtmann, et al. ([2004]); settings: ref Schiefner, Holtmann, et al. ([2004]); read-out: Affinity (K D); cited from earlier work
(UniProt A0A7G8ITR3) = experiment: Modified DSF (isothermal analysis, FoldAffinity) binding affinity of MITS9220_ProX; design: species or system Synechococcus sp. MITS9220; settings: read-out: Affinity (K D)
Description: (§1) The DSF assay was modified to elucidate binding kinetics, following a published protocol specifically outlining this application, and validated using SBPs (Bai et al., [2019]). Briefly, a range of protein concentrations were tested (2–20 μM) to determine the optimal signal‐to‐noise ratio while requiring a low protein concentration (5 μM). Protein solutions were prepared in Buffer A at a concentration of 10 μM, with a 50× concentration of SYPRO Orange dye. Working stocks of ligands were prepared independently (in Buffer A) at the following concentrations: 0.4, 0.8, 1.6, 3.2, 6.4, 12.8, 25, 50, 100, 200, 2000 μM. ProX protein and ligands (10 μl each) were both delivered in triplicate into a 96‐well plate (final volume 20 μl). Plates were centrifuged in a benchtop plate spinner (1 min) to ensure sample homogeneity before recording fluorescence data across the thermal ramp as previously described.
(§2) Data were processed using two independent software packages: the provided Python package (Bai et al., [2019]) and the web‐based FoldAffinity tool (Niebling et al., [2021]) to ensure their consistency and determine affinity values. The final values reported were taken from FoldAffinity. Processed results were then plotted (GraphPad Prism) to generate publication‐quality figures of the processed data.
(§3) Purified ProX samples were subjected to binding kinetics determination using a modified DSF approach (Bai et al., [2019]; Niebling et al., [2021]). This approach was selected due to aberrant noise in calorimetric and tryptophan quenching experiments, attributed to possible dimer‐monomer interconversion co‐occurring with ligand‐binding events. […] This is related to the proportion of folded versus unfolded protein at a single temperature (isothermal analysis) using a selected temperature value (T sel ) slightly above the T M previously determined. Using the FoldAffinity tool (Niebling et al., [2021]), non‐linear regression and curve fitting of the processed thermal melt curves allowed the determination of ligand dissociation constants (K D ) for each protein and ligand partner.

WH8102_ProX [3] = target: T1, WH8102_ProX (Parasynechococcus marenigrum, UniProt Q7U4Z5); experiment: Modified DSF (isothermal analysis, FoldAffinity) binding affinity of WH8102_ProX; design: species or system Synechococcus sp. WH8102; settings: for Kd: read-out: Affinity (K D)
Description: as §1, §2, §3

WH8102_ProX [4] = target: T1, WH8102_ProX; experiment: DSF thermal melt ligand screening of WH8102_ProX; format: binding, Synechococcus sp. WH8102; settings: ligand tested independently by DSF
Description: (§4) Commercially available libraries of small molecules were tested as potential binding partners to ProX by recording differential scanning fluorimetry (DSF) responses over a thermal gradient (Neisen et al., [2007]). SYPRO Orange dye (Invitrogen) was used to monitor fold integrity in discrete protein mixtures by measuring fluorescence at 590 nm following excitation at 485 nm using a Stratagene MX3000P q‐PCR instrument. Compounds tested in 96‐well blocks incorporated common protein stabilizing ligands (HR2‐096 Silver Bullets, Hampton Research) and single‐molecule osmolyte sources (MicroPlate PM9, Biolog Inc). The concentration of these compounds following reaction set‐up was ~4 μM, and, therefore below the concentration required to effect complete saturation of the binding pocket. Each condition was tested in triplicate, with each plate containing a control well with no additive.
(§5) Thermal melt curves were analysed using the analysis template provided (Neisen et al., [2007]) and fitting of Boltzmann distribution (GraphPad Prism) for the determination of mid‐point thermal melt temperatures (Bai et al., [2019]). The only condition (Silver Bullets well #D8) leading to a significant increase (>3°C) in melting temperature was deconvoluted to identify the single component leading to such a change and repeated in triplicate.

MITS9220_ProX = experiment: DSF thermal melt ligand screening of MITS9220_ProX; format: binding, Synechococcus sp. MITS9220; settings: ligand tested independently by DSF
Description: as §4, §5

[5] = 0.50 M NaCl (Buffer A), Tsel 62°C

T1 sequence (Q7U4Z5 entry or part of it): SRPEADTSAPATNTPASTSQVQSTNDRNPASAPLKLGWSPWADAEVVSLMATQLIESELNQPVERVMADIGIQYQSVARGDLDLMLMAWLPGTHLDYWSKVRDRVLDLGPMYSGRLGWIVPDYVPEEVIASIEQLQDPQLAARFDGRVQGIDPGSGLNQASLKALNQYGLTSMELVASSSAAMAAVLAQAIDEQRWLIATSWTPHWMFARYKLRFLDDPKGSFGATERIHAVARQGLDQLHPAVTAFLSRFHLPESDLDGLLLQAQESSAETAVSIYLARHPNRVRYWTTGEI
(UniProt A0A7G8ITR3), sequence (A0A7G8ITR3 40-334 limits assumed): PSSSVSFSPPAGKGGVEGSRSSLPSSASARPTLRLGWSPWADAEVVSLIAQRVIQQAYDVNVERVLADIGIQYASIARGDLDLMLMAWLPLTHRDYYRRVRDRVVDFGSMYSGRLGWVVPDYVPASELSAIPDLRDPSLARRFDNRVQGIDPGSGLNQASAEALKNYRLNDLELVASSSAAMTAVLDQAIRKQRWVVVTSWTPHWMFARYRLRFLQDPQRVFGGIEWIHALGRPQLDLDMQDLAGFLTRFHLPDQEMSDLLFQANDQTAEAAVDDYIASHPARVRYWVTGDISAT

CC(=O)OCC[N+](C)(C)C [Acetylcholine]
Kd (ChoX): 145 µM

C[N+](C)(C)CC(O)CC(=O)[O-] (stereo not shown) [Carnitine]
Kd (OpuAC; dash with footnote b): > 10000 µM

C[N+](C)(C)CCO [Choline]
Kd (ChoX): 2.7 µM | Kd (TmoX): 3.8 µM

O=C(O)[C@@H]1CCCN1 [Proline]
Kd (OpuAC; dash with footnote b): > 10000 µM

C[N+](C)(C)[O-] [Trimethylamine oxide]
Kd (TmoX): 1.6 µM

C[N+](C)(C)CC(=O)[O-] [glycine betaine]
Kd (ProX [1]): 1 µM | Kd (ProX [2]): 0.06 µM | Kd ((UniProt A0A7G8ITR3); 0.25 M NaCl): 1.1 µM | Kd ((UniProt A0A7G8ITR3); [5]): 1.2 µM | Kd ((UniProt A0A7G8ITR3); 1.5 M NaCl): 0.52 µM | Kd (WH8102_ProX [3]; 0.25 M NaCl): 13 ± 0.5 µM | Kd (WH8102_ProX [3]; 0.50 M NaCl (Buffer A)): 12 µM | Kd (WH8102_ProX [3]; 1.5 M NaCl): 13 ± 0.7 µM

C[N+]1(C)CCC[C@H]1C(=O)[O-] [proline betaine]
TM shift (WH8102_ProX [4]): < 2 °C | Kd (ProX [1]): 5 µM | Kd (ProX [2]): 0.05 µM | Kd ((UniProt A0A7G8ITR3); [5]): > 1000 µM | Kd (OpuAC): 41 µM | TM shift (MITS9220_ProX): approximately 4 °C | Kd (WH8102_ProX [3]; 0.50 M NaCl (Buffer A)): 250 ± 80 µM | shifts in observed melting temperatures upon incremental addition of ligand (WH8102_ProX [3]; modified DSF, Figure S3): negligible shifts

Reference: article PMC10087775, “ProX from marine Synechococcus spp. show a sole preference for glycine‐betaine with differential affinity between ecotypes” (Environmental Microbiology, 2022)
